Source: US12344826B2, “Apparatus and methods for in vitro preclinical human trials” (THE GEORGE WASHINGTON UNIVERSITY, A CONGRESSIONALLY …, priority 2017, dated 2025)

Tests used:
[1] = test system: action potential (AP) morphology; details: blebbistatin 10 μM used to immobilize tissue; cited from earlier work
[2] = test system: human cardiac slices; assay: Acute vs chronic phenylephrine in cultured human cardiac slices, electrophysiology by optical mapping; assay type: cell-based; details: 3 μM phenylephrine, acute application vs slices cultured 24 hours in drug medium
Method: Utilizing cultured slices and an adult dosage of phenylephrine, a widely used selective α1-adrenergic receptor agonist, a model to study chronic drug effects in human cardiac slices is developed. Slice electrophysiology was first acutely measured using optical mapping after application of 3 μM phenylephrine.

Row | Structure (SMILES) | effects in action potential (AP) morphology [1] | Two electrophysiology parameters, acute vs chronic stimulation modes [2]
1 | Cc1ccc2c(c1)C(=O)C1(O)CCN(c3ccccc3)C1=N2 (centres unmarked) [blebbistatin] | no significant effects | –
2 | CNC[C@H](O)c1cccc(O)c1 [phenylephrine] | – | substantial difference
